In patent US10590153B2, “Process for producing crystalline DTPMP” (Zschimmer & Schwarz Mohsdorf GmbH & Co. KG, priority 2014, dated 2020):

How the values were obtained:
[1] = Solubility of DTPMP at room temperature in dependence on the concentration of sodium ions and chloride ions; assay type: physicochemical; conditions: chloride ions in the range of from 1 to 4% by mass, room temperature (FIG. 13)
Description: FIG. 13: Solubility of DTPMP at room temperature in dependence on the concentration of sodium ions and chloride ions in % by mass.

[2] = Determination of the hygroscopicity (gravimetric water absorption in desiccator at constant humidity); assay type: physicochemical; conditions: 22±2° C., relative humidity of 55%; for Relative water absorption: determined daily over 12 days
Method: In order to determine the hygroscopicity, solid samples were stored in 25 ml glass beakers in a desiccator under constant humidity. […] The water absorption of the samples was determined gravimetrically once daily over a period of 12 days as the difference in mass (see FIG. 14).
Two spray-dried powders were tested as comparison with crystallisate samples of the crystallisates of the α, β and γ crystal modification.
A DTPMP synthesis product having the quality parameters from Table 4 used as the starting slurry for the crystallisation was spray dried with a Büchi-Mini Spray Dryer B-290.

[3] = Bulk density of the samples used for the hygroscopicity test; assay type: physicochemical
[4] = about 55% humidity at 22° C.
Method: In a further test, the influence of the degree of neutralisation of the phosphonic acid DTPMP on the hygroscopicity was studied, on account of its industrial relevance, especially the sodium salts. To that end, 10 g of sample were stored in four crystallisation dishes of equal size in a desiccator under constant humidity. Via a saturated magnesium nitrate solution with precipitate (about ⅓ precipitate in ⅔ of the solution), about 55% by weight humidity is established at 22° C. The water absorption of the samples was determined gravimetrically twice daily over a period of 22 days as the difference in mass (see FIG. 15).
A crystallisate of the α crystal modification with a foreign acid content of 3.8% by weight chloride and in total 6.6% by weight H3PO4 and H3PO3 per 100% by mass DTPMP was dissolved again. Portions were neutralised with sodium hydroxide solution to pH (1% strength)=1.7 for the Na0.5-DTPMP salt, pH (1% strength)=2.1 for the Na3-DTPMP salt and pH (1% strength)=6.6 for the Na7-DTPMP salt.

Structure (SMILES) | Relative water absorption [2] [% by mass/day] | Bulk density [3] [g/mL] | Appearance of the sample after 22 days [4] | other results
O=P(O)(O)CN(CCN(CP(=O)(O)O)CP(=O)(O)O)CCN(CP(=O)(O)O)CP(=O)(O)O [DTPMP, diethylenetriamine penta(methylenephosphonic acid)] |  |  |  | Solubility of DTPMP (in words) [1]: further reduction in solubility
O=P(O)(O)CN(CCN(CP(=O)(O)O)CP(=O)(O)O)CCN(CP(=O)(O)O)CP(=O)(O)O [DTPMP acid, diethylenetriamine penta(methylenephosphonic acid)] |  |  | still recognisable | 
O=P(O)(O)CN(CCN(CP(=O)(O)O)CP(=O)(O)O)CCN(CP(=O)(O)O)CP(=O)(O)O [Crystal form α, purified quality, diethylenetriamine penta(methylenephosphonic acid)] | 0.03 | 0.36 |  | Hygroscopicity / water absorption capacity (in words) ([2]; listed as crystal modification α): consistently low water absorption

More lines, main results first:

Relative water absorption [2] [% by mass/day] | Bulk density [3] [g/mL] | Appearance of the sample after 22 days [4] | Structure (SMILES) | other results
0.29 | 0.27 |  | O=P(O)(O)CN(CCN(CP(=O)(O)O)CP(=O)(O)O)CCN(CP(=O)(O)O)CP(=O)(O)O [amorphous powder from spray drying of a DTPMP acid purified ] [reference compound] | Hygroscopicity / water absorption capacity (in words) ([2]; listed as DTPMP quality purified by recrystallisation and spray dried): lower water absorption capacity than the unpurified crude product
 |  | liquefied | O=P([O-])([O-])CN(CCN(CCN(CP(=O)([O-])[O-])CP(=O)([O-])O)CP(=O)([O-])O)CP(=O)([O-])O.[Na+].[Na+].[Na+].[Na+].[Na+].[Na+].[Na+] [Na7 salt] | Appearance of the sample after half the test time ([4]; after only half the test time (of 22 days)): visibly contracting to form a block
